Experimental data reported in patent US9062028B2, “Bicyclic nitrogen containing heteroaryl TGR5 receptor modulators” (Bristol-Myers Squibb Company, priority 2011, dated 2015).
Counter-ions that a name gives are not always drawn.

Biological target: T1, recombinant human TGR5 (Homo sapiens, UniProt Q8TDU6)
T1 construct: expressed in transfected cells
T1 sequence (Q8TDU6 1-330): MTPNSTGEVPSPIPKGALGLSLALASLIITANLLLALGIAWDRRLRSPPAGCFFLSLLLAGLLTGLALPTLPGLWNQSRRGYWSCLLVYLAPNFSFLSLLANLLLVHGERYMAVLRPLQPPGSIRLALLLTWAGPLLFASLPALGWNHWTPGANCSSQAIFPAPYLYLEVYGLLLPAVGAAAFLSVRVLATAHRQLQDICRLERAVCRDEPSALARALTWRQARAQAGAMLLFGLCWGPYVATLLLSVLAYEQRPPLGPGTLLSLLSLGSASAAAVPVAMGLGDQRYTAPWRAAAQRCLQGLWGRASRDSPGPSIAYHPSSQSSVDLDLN
Test: cAMP assay (cAMP accumulation, HTRF) in CHOK1 cells stably expressing TGR5
Type: cell-based
Details: CHOK1 cells stably expressing human TGR5, 30 minutes at RT, 1% DMSO
In short: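 Agonist-induced cAMP accumulation: stable TGR5-CHOK1 cells treated 30 min at RT with compound (1% DMSO) plus 0.1 mM IBMX. HTRF ratio converted to nM cAMP via standard curve; EC50 from four-parameter logistic fit, midpoint between baseline and maximum.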

| SMILES | EC50 |
| --- | --- |
| Cc1cccc(OCCCC(=O)N2CCCc3c(-c4cccc(COC(=O)N[C@@H](C)CC(=O)O)c4)cccc32)c1C [Example 302, (S)-3-((3-(1-(4-(2,3-Dimethylphenoxy)butanoyl)-l,2,3,4-tetrahydroquinolin-5-yl)benzyloxy)carbonylamino) butanoic acid] | 593 nM |
| Cc1cccc(CCOCC(=O)N2CCCc3c(-c4cnn(Cc5cccc(C(=O)O)c5)c4)cccc32)c1C [Example 15, 3-((4-(1-(2-(2,3-Dimethylphenethoxy)acetyl)-1,2,3,4-tetrahydroquinolin-5-yl)-1H-pyrazol-1-yl)methyl)benzoic acid] | 5900 nM |
| Cc1cccc(OCCOC(=O)N2CCOc3c(-c4cnn(Cc5cccc(C(=O)NCCS(=O)(=O)O)c5)c4)cccc32)c1C [Example 182, 2-(3-((4-(4-((2-(2,3-Dimethylphenoxy)ethoxy)carbonyl)-3,4-dihydro-2H-benzo[b] [1,4]oxazin-8-yl)-1H-pyrazol-1-yl)methyl)benzamido) ethanesulfonic acid] | 589 nM |
| Cc1cccc(OCCCC(=O)N2CCCOc3c(-c4cnn(Cc5cccc(N(C)C(=O)NCS(=O)(=O)O)c5)c4)cccc32)c1C [Example 526, (3-(3-((4-(5-(4-(2,3-Dimethylphenoxy)butanoyl)-2,3,4,5-tetrahydrobenzo [b][1,4]oxazepin-9-yl)-1H-pyrazol-1-yl)methyl)phenyl)-3-methylureido) methanesulfonic acid] | 1500 nM |
| Cc1cccc(OCCCC(=O)N2CCCc3c(-c4cccc(COC(=O)NC[C@H](NC(=N)N)C(=O)O)c4)cccc32)c1C [Example 168F, (S)-3-((3-(1-(4-(2,3-Dimethylphenoxy)butanoyl)-1,2,3,4-tetrahydroquinolin-5-yl)benzyloxy)carbonylamino)-2-guanidinopropanoic acid] | 590 nM |
| Cc1cccc(OCCCC(=O)N2CCCc3c(-c4cccc(COC(=O)N(CCCS(=O)(=O)O)C5CC5)c4)cccc32)c1C [Example 36, 3-(Cyclopropyl((3-(1-(4-(2,3-dimethylphenoxy)butanoyl)-1,2,3,4-tetrahydroquinolin-5-yl)benzyloxy)carbonyl)amino)propane-1-sulfonic acid] | 2910 nM |
| COC(=O)c1ccc(O)c(Cn2cc(-c3cccc4c3[C@H]3C[C@H]3CN4C(=O)OCCOc3cccc(Cl)c3C)cn2)c1 [Example 447, (1aR,7bS)-2-(3-Chloro-2-methylphenoxy)ethyl 7-(1-(2-hydroxy-5-(methoxycarbonyl)benzyl)-1H-pyrazol-4-yl)-1a,2-dihydro-1H-cyclopropa[c] quinoline-3(7bH)-carboxylate] | 1590 nM |
| Cc1cccc(OCCCC(=O)N(C)c2cccc(-c3cnn(Cc4cccc(C(=O)NCCC(=O)O)c4)c3)c2)c1C [Example 552, 3-(3-((4-(3-(4-(2,3-Dimethylphenoxy)-N-methylbutanamido)phenyl)-1H-pyrazol-1-yl)methyl)benzamido)propanoic acid] | 2380 nM |
| Cc1cccc(OCCCC(=O)N2CCCc3c(-c4cnn(CCNC(=O)NCC(=O)O)c4)cccc32)c1C [Example 110G, 2-(3-(2-(4-(1-(4-(2,3-Dimethylphenoxy)butanoyl)-1,2,3,4-tetrahydroquinolin-5-yl)-1H-pyrazol-1-yl)ethyl)ureido)acetic acid] | 3140 nM |
| Cc1cccc(OCCCC(=O)N2CCCc3c(-c4cccc(COC(=O)NC(CCS)C(=O)O)c4)cccc32)c1C (stereo not shown) [Example 289, 2-((3-(1-(4-(2,3-Dimethylphenoxy)butanoyl)-1,2,3,4-tetrahydroquinolin-5-yl)benzyloxy)carbonylamino)-4-mercaptobutanoic acid] | 2810 nM |
| Cc1cccc(OCCCC(=O)N2CCCc3c(-c4cnn(CCNC(=O)CC(=O)O)c4)cccc32)c1C [Example 110J, 3-(2-(4-(1-(4-(2,3-Dimethylphenoxy)butanoyl)-1,2,3,4-tetrahydroquinolin-5-yl)-1H-pyrazol-1-yl)ethylamino)-3-oxopropanoic acid] | 3300 nM |
| Cc1cccc(OCCCC(=O)N2CCCc3c(-c4cnn(Cc5cccc(-c6nnn(CC(=O)O)n6)c5)c4)cccc32)c1C [Example 430, 2-(5-(3-((4-(1-(4-(2,3-Dimethylphenoxy)butanoyl)-1,2,3,4-tetrahydroquinolin-5-yl)-1H-pyrazol-1-yl)methyl)phenyl)-2H-tetrazol-2-yl) acetic acid] | 197 nM |
| Cc1cccc(OCCCC(=O)N2CCCc3c(-c4cnn(Cc5cccc(N(C)C(=O)NCC[N+](C)(C)C)c5)c4)cccc32)c1C [Example 471, 2-(3-(3-((4-(1-(4-(2,3-Dimethylphenoxy)butanoyl)-1,2,3,4-tetrahydroquinolin-5-yl)-1H-pyrazol-1-yl)methyl)phenyl)-3-methylureido)-N,N,N-trimethylethanaminium, TFA salt] | 2170 nM |
| Cc1cccc(OCCCC(=O)N2CCCc3c(-c4cnn(Cc5cccc(S(=O)(=O)N[C@@H](CCC[N+](C)(C)C)C(=O)O)c5)c4)cccc32)c1C [Example 507, (S)-4-Carboxy-4-(3-((4-(1-(4-(2,3-dimethylphenoxy)butanoyl)-1,2,3,4-tetrahydroquinolin-5-yl)-1H-pyrazol-1-yl)methyl)phenyl-sulfonamido)-N,N, N-trimethylbutan-1-aminium] | 2110 nM |
| Cc1cccc(OCCCC(=O)N2CCCc3c(-c4cnn(Cc5cccc(C(=O)N[C@@H](C)C(=O)O)c5)c4)cccc32)c1C [Example 864, (S)-2-(3-((4-(1-(4-(2,3-Dimethylphenoxy)butanoyl)-1,2,3,4-tetrahydroquinolin-5-yl)-1H-pyrazol-1-yl)methyl)benzamido)propanoic acid] | 193 nM |

The remaining lines, values ahead:

| EC50 | SMILES |
| --- | --- |
| 41 nM | Cc1c(Cl)cccc1OCCOC(=O)N1C[C@@H]2C[C@@H]2c2c(-c3cnn(Cc4cc(C(=O)NCC5(C(=O)O)CC5)ccc4Cl)c3)cccc21 [Example 699, 1-((4-Chloro-3-((4-((1aR,7bS)-3-((2-(3-chloro-2-methylphenoxy)ethoxy)carbonyl)-1a,2,3,7b-tetrahydro-1H-cyclopropa[c]quinolin-7-yl)-1H-pyrazol-1-yl)methyl)benzamido)methyl) cyclopropanecarboxylic acid] |
| 30 nM | Cc1c(Cl)cccc1OCCCC(=O)N1CCSc2c(-c3cnn(Cc4cccc(C(=O)NCCO)c4)c3)cccc21 [Example 592, 3-((4-(4-(4-(3-Chloro-2-methylphenoxy)butanoyl)-3,4-dihydro-2H-benzo[b][1,4]thiazin-8-yl)-1H-pyrazol-1-yl)methyl)-N-(2-hydroxyethyl) benzamide] |
| 51 nM | Cc1cccc(OCCCC(=O)N2CC3CC3c3c(-c4cnn(Cc5cccc(N)c5)c4)cccc32)c1C (stereo not shown) [Example 69G, 1-(7-(1-(3-Aminobenzyl)-1H-pyrazol-4-yl)-1a,2-dihydro-1H-cyclopropa[c]quinolin-3(7bH)-yl)-4-(2,3-dimethylphenoxy)butan-1-one] |
| 188 nM | Cc1c(Cl)cccc1OCCCC(=O)N1CCCCc2c(-c3cnn(Cc4cccc(C(=O)NCCC(=O)O)c4)c3)cccc21 [Example 730, 3-(3-((4-(1-(4-(3-Chloro-2-methylphenoxy)butanoyl)-2,3,4,5-tetrahydro-1H-benzo[b]azepin-6-yl)-1H-pyrazol-1-yl)methyl)benzamido)propanoic acid] |
| 183 nM | Cc1c(Cl)cccc1OCCOC(=O)N1C[C@@H]2C[C@@H]2c2c(-c3cnn(Cc4cccc(C(C)(C)O)c4)c3)cccc21 [Example 434, (1aR,7bS)-2-(3-Chloro-2-methylphenoxy)ethyl 7-(1-(3-(2-hydroxypropan-2-yl)benzyl)-1H-pyrazol-4-yl)-1a,2-dihydro-1H-cyclopropa [c]quinoline-3(7bH)-carboxylate] |
| 173 nM | Cc1c(Cl)cccc1OCCOC(=O)N1CC(F)(F)COc2c(-c3cnn(Cc4c(F)cc(C(=O)O)cc4Cl)c3)cccc21 [Example 336, 3-Chloro-4-((4-(5-((2-(3-chloro-2-methylphenoxy)ethoxy)carbonyl)-3,3-difluoro-2,3,4,5-tetrahydrobenzo[b][1,4]oxazepin-9-yl)-1H-pyrazol-1-yl)methyl)-5-fluorobenzoic acid] |
| 38 nM | Cc1c(Cl)cccc1OCCCC(=O)N1CCSc2c(-c3cnn(Cc4c(F)cc(C(=O)NCC(=O)O)cc4Cl)c3)cccc21 [Example 581, 2-(3-Chloro-4-((4-(4-(4-(3-chloro-2-methylphenoxy)butanoyl)-3,4-dihydro-2H-benzo[b][1,4]thaizin-8-yl)-1H-pyrazol-1-yl)methyl)-5-fluorobenzamido)acetic acid] |
| 42 nM | Cc1c(Cl)cccc1OCCCC(=O)N1CCSc2c(-c3cnn(Cc4cccc(C(=O)NCC(C)(C)O)c4)c3)cccc21 [Example 593, 3-((4-(4-(4-(3-Chloro-2-methylphenoxy)butanoyl)-3,4-dihydro-2H-benzo[b][1,4]thiazin-8-yl)-1H-pyrazol-1-yl)methyl)-N-(2-hydroxy-2-methylpropyl)benzamide] |
| 42 nM | Cc1cccc(OCCCC(=O)N2C[C@@H]3C[C@@H]3c3c(-c4cnn(Cc5cccc(C(=O)NCC(=O)O)c5)c4)cccc32)c1C [Example 878, 2-(3-((4-((1aR,7bS)-3-(4-(2,3-Dimethylphenoxy)butanoyl)-1a,2,3,7b-tetrahydro-1H-cyclopropa[c]quinolin-7-yl)-1H-pyrazol-1-yl)methyl)benzamido)acetic acid] |
| 47 nM | Cc1cccc(OCCCC(=O)N2CCCc3c(-c4cnn(Cc5c(F)cc(C(=O)NCCC(=O)O)cc5Cl)c4)cccc32)c1C [Example 176, 3-(3-Chloro-4-((4-(1-(4-(2,3-dimethylphenoxy)butanoyl)-1,2,3,4-tetrahydroquinolin-5-yl)-1H-pyrazol-1-yl)methyl)-5-fluorobenzamido) propanoic acid] |
